{"source": "ChEMBL document CHEMBL3507680", "about": "“University of Dundee, Gates Library screen for HepG2 cell viability”"}
{"test": "Human HepG2 cell viability assay in 384 well format", "assay_type": "toxicity, cell-based", "parameters": "dose 125 nL, time 70.5 hour; concentration not given beside the values", "conditions": "HepG2 cells, read-out: Inhibition", "units": {"cytotoxicity at 70.5 h": "%"}}
{"smiles": "Cc1nn(-c2ncccn2)c2c1C(c1cnn(C)c1)SCC(=O)N2", "note": "(stereo not given)", "cytotoxicity at 70.5 h": -24.2}
{"smiles": "O=C(CCC1CCCO1)NCCCC(=O)Nc1ccc(Cl)cc1", "note": "(stereo not given)", "cytotoxicity at 70.5 h": -12}
{"smiles": "Cc1cc(S(=O)(=O)N2CCC(S(C)(=O)=O)CC2)ccc1F", "cytotoxicity at 70.5 h": -0.414}
{"smiles": "CCCOC1CCCN(C(=O)c2ccc(S(N)(=O)=O)cc2)C1", "note": "(stereo not given)", "cytotoxicity at 70.5 h": -3.49}
{"smiles": "CCc1nc2c(NCC3COc4cc(OC)ccc4C3)ncnc2o1", "note": "(stereo not given)", "cytotoxicity at 70.5 h": -5.75}
{"smiles": "Cc1nc(C(=O)N(C)C)nn1-c1ccccc1C(C)C", "cytotoxicity at 70.5 h": 0.366}
{"smiles": "CCOc1cccc(CNC(C)c2ccc(-n3ccnc3)cc2)c1O", "note": "(stereo not given)", "cytotoxicity at 70.5 h": 2.29}
{"smiles": "CC(C)c1cc2c(s1)NC(c1ccccn1)NC2=O", "note": "(stereo not given)", "cytotoxicity at 70.5 h": -3.28}
{"smiles": "COc1cc(C(=O)NCc2ccc3c(c2)CCCN3C)cc(OC)c1Br", "cytotoxicity at 70.5 h": -8.61}
{"smiles": "CCn1cnnc1C1CCN(C(=O)c2ccc3ccccc3n2)CC1", "cytotoxicity at 70.5 h": -3.84}
{"smiles": "Cc1ccc(C(=O)N2CCC[C@@H]2Cn2nnc3c(O)nc(C)nc32)cc1", "cytotoxicity at 70.5 h": -2.37}
{"smiles": "CC(NCc1cnn(C)c1)c1ccc(OCc2nccn2C)cc1", "note": "(stereo not given)", "cytotoxicity at 70.5 h": -2.06}
{"smiles": "CCc1nc(C2CCCN2CC(=O)Nc2cc(C)on2)no1", "note": "(stereo not given)", "cytotoxicity at 70.5 h": -6.96}
{"smiles": "CCS(=O)(=O)NC(CCSC)C(=O)Nc1cc(F)ccc1C", "note": "(stereo not given)", "cytotoxicity at 70.5 h": -36.1}
{"smiles": "O=C(NCc1noc(C2CCCO2)n1)c1cn2ccsc2n1", "note": "(stereo not given)", "cytotoxicity at 70.5 h": -9.32}
{"smiles": "c1cc(C2CCN(Cc3ccc4c(c3)OCO4)CC2)ccn1", "cytotoxicity at 70.5 h": -2.31}
{"smiles": "Cc1nn(C)c2nc(NC(C)c3n[nH]c(=O)[nH]3)sc12", "note": "(stereo not given)", "cytotoxicity at 70.5 h": -10.8}
{"smiles": "CNC(=O)CN1CCOCC2(CCCN(Cc3ccc(F)cc3)C2)C1", "note": "(stereo not given)", "cytotoxicity at 70.5 h": -9.75}
{"smiles": "CSc1nc2cc(C)n(CC(=O)N3CCCC3)c2c(=O)n1CC(C)C", "cytotoxicity at 70.5 h": -5.31}
{"smiles": "CCCc1nc(C)c(C(=O)NCc2ccc(C)n2C)s1", "cytotoxicity at 70.5 h": 17.6}
{"smiles": "CC(C)C(C(=O)N1CCCN(Cc2nccn2C)CC1)N1CCCC1", "note": "(stereo not given)", "cytotoxicity at 70.5 h": 30.4}
{"smiles": "O=C(N1CCCC1)N1CCC(Nc2ccncn2)CC1", "cytotoxicity at 70.5 h": -3.32}
{"smiles": "COCCNC(=O)c1ccc2c(=O)n3c(nc2c1)CCCCC3", "cytotoxicity at 70.5 h": -22.9}
{"smiles": "CC(c1nccs1)N(C)Cc1ccc(CCC(C)(C)O)cc1", "note": "(stereo not given)", "cytotoxicity at 70.5 h": 0.285}
{"smiles": "CCOc1ccccc1NC(=O)CN(C)Cc1ccccc1Cl", "cytotoxicity at 70.5 h": -0.249}
{"smiles": "CC(Cn1cccn1)Nc1cnc2ccccc2n1", "note": "(stereo not given)", "cytotoxicity at 70.5 h": -0.212}
{"smiles": "Cc1noc(NC(=O)c2ccc(F)cc2)n1", "cytotoxicity at 70.5 h": -3.99}
{"smiles": "Cc1nc(C(=O)N2CCOC(Cc3ccccc3)C2)co1", "note": "(stereo not given)", "cytotoxicity at 70.5 h": 23}
{"smiles": "CCNC(=O)Cc1ccc(NC(=O)NC(CC)c2ccncc2)cc1", "note": "(stereo not given)", "cytotoxicity at 70.5 h": -2.39}
{"smiles": "O=C1N[C@@H]2CCN(C(=O)c3ccccc3)[C@@H]2C(=O)N1c1ccc(F)cc1", "cytotoxicity at 70.5 h": -12.9}
{"smiles": "N#Cc1ccc(CN2CCCCC2Cn2cccn2)cc1", "note": "(stereo not given)", "cytotoxicity at 70.5 h": 16}
{"smiles": "O=C(Cc1cc(-c2ccc3c(c2)OCCO3)on1)NCc1ccccn1", "cytotoxicity at 70.5 h": -10.7}
{"smiles": "COc1cccc(CN(C)Cc2nc3cc(C)ccc3[nH]2)c1O", "cytotoxicity at 70.5 h": -2.34}
{"smiles": "O=c1c(S(=O)(=O)N2CCCCC2)cccn1Cc1ccccc1Cl", "cytotoxicity at 70.5 h": -1.51}
{"smiles": "COC(=O)c1ccc(N2CCN(C(=O)CCCc3cn[nH]c3)CC2)cc1", "cytotoxicity at 70.5 h": -2.65}
{"smiles": "CS(=O)(=O)N1CCO[C@@H]2CN(C(=O)N3CCCC3)CC[C@@H]2C1", "cytotoxicity at 70.5 h": -8.13}
{"smiles": "CN1CCN(C(=O)[C@H]2CC[C@@H]3[C@@H](CCN3Cc3nccs3)O2)CC1", "cytotoxicity at 70.5 h": -13.2}
{"smiles": "CCOC(=O)c1n[nH]cc1CN1CCOC(Cc2ccc(OC)cc2)C1", "note": "(stereo not given)", "cytotoxicity at 70.5 h": -3.26}
{"smiles": "OC[C@H]1CN(Cc2c(Cl)cncc2Cl)C[C@H]1CN1CCCCCC1", "cytotoxicity at 70.5 h": -1.47}
{"smiles": "CN(C)S(=O)(=O)N1CCN(C(=O)c2cc(-c3ccccc3)[nH]n2)CC1", "cytotoxicity at 70.5 h": -0.515}
{"smiles": "Cc1ccccc1SCC(=O)NS(=O)(=O)c1ccc2c(c1)OCCO2", "cytotoxicity at 70.5 h": -2.48}
{"smiles": "c1ccc(NCc2cn3c(n2)CN(Cc2ccoc2)CC3)nc1", "cytotoxicity at 70.5 h": -0.75}
{"smiles": "CCNC(c1ccc(CC)cc1)c1cccnc1", "note": "(stereo not given)", "cytotoxicity at 70.5 h": 7.31}
{"smiles": "CC(C)c1nc2c(n1C)CCN(CC(=O)Nc1ccnn1C(C)C)C2", "cytotoxicity at 70.5 h": 0.248}
{"smiles": "O=C(c1cccc2c1OCO2)N1CCCC1c1noc(C2CC2)n1", "note": "(stereo not given)", "cytotoxicity at 70.5 h": 31.3}
